Key:
[1] = system: SKOV-3 ovarian cancer xenografts; test: Size effect on biodistribution, NIR imaging, xenograft model II; parameters: species or system nude mice; conditions: in vivo NIR imaging
Procedure: To study the effects of particle size on the in vivo biodistribution of nanoparticles, the same concentration of DiD (a hydrophobic near infra-red (NIR) cyanine dye, 1 mg/mL) was co-loaded with PTX (4 mg/mL, 4 mg/mL and 3 mg/mL, respectively) into 20 mg/mL micelle solutions of PEG^2000-CA4, PEG^5000-CA8 and PEG^3000-CA4, to form three fluorescence labeled micelle preparations with distinct sizes of 17 nm, 64 nm and 154 nm, respectively (FIG. 35A). Each of these three sizes of DiD-loaded micelles was incubated with Raw 264.7 macrophage cells for 2 h. The cells were then washed three times with PBS, fixed with 70% ethanol and observed under confocal fluorescence microscope. […] NIR fluorescent imaging was used to evaluate the in vivo biodistribution of the three micelles with different sizes in nude mice bearing the SKOV-3 ovarian cancer xenografts (subcutaneous and intraperitoneal implants). The mice were injected via the tail vein with the same volume of the above three PTX-DiD loaded micelle preparations in PBS. Ex vivo imaging of the excised organs and tumors were performed at 24 h after injection. […] The in vivo NIR images of a tumor bearing mouse treated with the DiD-PTX-PEG^5000CA8 was recorded over time (FIG. 35D). The accumulation of the DiD loaded micelles at the tumor site via the EPR effect began at 2 h after injection and continued to increase over the 24 h period.

[2] = system: intraperitoneal SKOV3-luc ovarian tumor; test: Biodistribution after i.p. injection, xenograft model III; type: in vivo, mice; conditions: up to 72 h
Procedure: PEG^5000-CA8 (polymer 7) nanoparticles biodistribution after i.p. injection in intraperitoneal SKOV3-luc ovarian tumor bearing mice was investigated. Mice were injected i.p. with free DiD or DiD-loaded PEG^5000-CA8 nanoparticles. […] At 72 h, the peritoneal cavity was exposed and scanned with the Kodak imaging station, displaying DiD-labeled PEG^5000-CA8 nanoparticles localization on the surface of peritoneal tumor nodules (FIGS. 38A-38B).

CCCCCCCCCCCCCCCCCCN1C(=CC=CC=CC2=[N+](CCCCCCCCCCCCCCCCCC)c3ccccc3C2(C)C)C(C)(C)c2ccccc21.[O-][Cl+3]([O-])([O-])[O-] [DiD, 1,1′-dioctadecyl-3,3,3′,3′-tetramethylindo-dicarbocyanine perchlorate]
tumor targeting [1]: no tumor targeting was found | fluorescence distribution after i.p. injection [2]: declined to a level not distinguishable from background auto-fluorescence at 72 h

Reference: patent publication US10556021B2, “Nanocarriers for drug delivery” (THE REGENTS OF THE UNIVERSITY OF CALIFORNIA, priority 2008, dated 2020)
